# Measured values reported in patent publication US12286425B2, “Herbicidally active bicyclic benzamides” (Bayer Aktiengesellschaft, priority 2018, dated 2025).
# Tests used:
# Assay type in all cases: in vivo
# [1] = tested on: AVEFA; experiment: Pre-emergence herbicidal action (PE), greenhouse pot test, AVEFA; conditions: pre-emergence (PE); application rate 320; scored visually after about 3 weeks vs untreated controls; 100% = plants have died, 0% = like control plants
# Excerpt: (§1) 1. Pre-emergence herbicidal action and crop plant compatibility (pre-emergence, PE) Seeds of monocotyledonous and dicotyledonous weed plants and crop plants are placed in plastic or organic planting pots and covered with soil. The compounds of the invention, formulated in the form of wettable powders (WP) or as emulsion concentrates (EC), are then applied onto the surface of the covering soil as aqueous suspension or emulsion with addition of 0.5% additive at a water application rate of […] (converted). After the treatment, the pots are placed in a greenhouse and kept under good growth conditions for the trial plants. After about 3 weeks, the effect of the preparations is scored visually in comparison with untreated controls as percentages. The tables below show the herbicidal activity of numerous compounds according to the invention against important harmful plants. For example, 100% activity=the plants have died, 0% activity=like control plants.
# [2] = tested on: SETVI; experiment: Pre-emergence herbicidal action (PE), greenhouse pot test, SETVI; conditions: pre-emergence (PE), Setaria viridis, application rate 320, scored visually after about 3 weeks
# Excerpt: as §1
# [3] = tested on: monocotyledonous and dicotyledonous weed plants and crop plants; experiment: Pre-emergence herbicidal action and crop plant compatibility (PE), other species and comparison with A-117; conditions: pre-emergence (PE), application rate 320, scored visually after about 3 weeks; for Herbicidal activity ABUTH: Abutilon theophrasti; for Herbicidal activity AMARE: Amaranthus retroflexus; for Herbicidal activity CYPES: Cyperus esculentus; for Herbicidal activity ECHCG: Echinochloa crus-galli; for Herbicidal activity MATIN: Matricaria inodora; for Herbicidal activity POLCO: Polygonum convolvulus; for Herbicidal activity STEME: Stellaria media; for Herbicidal activity VIOTR: Viola tricolor
# Excerpt: as §1
# (§2) In a comparative experiment, by way of example, the herbicidal activity of compound No. 2-13 according to the invention was compared to that of compound No. A-117 known from WO 2013/076315 A2.
# [4] = tested on: monocotyledonous and dicotyledonous weeds and crop plants; experiment: Post-emergence herbicidal action and crop plant compatibility (PO), including comparison with A-117; conditions: post-emergence (PO), application rate 80, rated visually after about 3 weeks; for Herbicidal activity ABUTH: Abutilon theophrasti; for Herbicidal activity AMARE: Amaranthus retroflexus; for herbicidal activity AVEFA: Avena fatua; for Herbicidal activity CYPES: Cyperus esculentus; for Herbicidal activity ECHCG: Echinochloa crus-galli; for Herbicidal activity PHBPU: Ipomoea purpurea; for Herbicidal activity POLCO: Polygonum convolvulus; for Herbicidal activity SETVI: Setaria viridis; for Herbicidal activity STEME: Stellaria media; for Herbicidal activity VERPE: Veronica persica; for Herbicidal activity VIOTR: Viola tricolor
# Description: 2. Post-emergence herbicidal action and crop plant compatibility (post-emergence, PO) Seeds of monocotyledonous and dicotyledonous weeds and crop plants are placed in sandy loam in plastic or organic planting pots, covered with soil and cultivated in a greenhouse under controlled growth conditions. 2 to 3 weeks after sowing, the test plants are treated at the one-leaf stage. The compounds of the invention, formulated in the form of wettable powders (WP) or as emulsion concentrates (EC), are then sprayed onto the green parts of the plants as aqueous suspension or emulsion with addition of 0.5% additive at a water application rate of […] (converted). After the test plants had been kept in the greenhouse under optimum growth conditions for about 3 weeks, the activity of the preparations is rated visually in comparison to untreated controls. The tables below show the herbicidal activity of numerous compounds according to the invention against important harmful plants. For example, 100% activity=the plants have died, 0% activity=like control plants.
# as §2
Compound,herbicidal activity AVEFA [1] [%],Herbicidal activity SETVI [2] [%],Herbicidal activity ABUTH [3] [%],Herbicidal activity AMARE [3] [%],Herbicidal activity CYPES [3] [%],Herbicidal activity ECHCG [3] [%],Herbicidal activity MATIN [3] [%],Herbicidal activity POLCO [3] [%],Herbicidal activity STEME [3] [%],Herbicidal activity VIOTR [3] [%],Herbicidal activity ABUTH [4] [%],Herbicidal activity AMARE [4] [%],herbicidal activity AVEFA [4] [%],Herbicidal activity CYPES [4] [%],Herbicidal activity ECHCG [4] [%],Herbicidal activity PHBPU [4] [%],Herbicidal activity POLCO [4] [%],Herbicidal activity SETVI [4] [%],Herbicidal activity STEME [4] [%],Herbicidal activity VERPE [4] [%],also measured
"Cn1nnnc1NC(=O)c1ccc(C(F)(F)F)c2c1OCCS2(=O)=O [Example 2-20, 5-(trifluoromethyl)-2,3-dihydro-1,4-benzoxathiine-N-(1-methyltetrazol-5-yl)-8-carboxamide 4,4-dioxide]",100,100,100,100,100,100,100,100,90,100,100,100,80,80,90,90,100,90,90,100,Herbicidal activity ALOMY ([4]; Alopecurus myosuroides): 80%; Herbicidal activity LOLMU ([4]; Lolium multiflorum): 80%; Herbicidal activity MATIN ([4]; Matricaria inodora): 100%; Herbicidal activity VIOTR [4]: 100%
CCn1nnnc1NC(=O)c1ccc(C(F)(F)F)c2c1OCC[S+]2[O-] (stereo not drawn) [Example 3-16],100,100,100,100,100,100,100,100,100,100,100,100,100,90,90,100,90,90,100,100,Herbicidal activity VIOTR [4]: 100%
